This assay addresses T1, canine TRPM8 (Canis lupus familiaris, UniProt Q1A7N1).
T1 construct: expressed in transfected cells
Put plainly: In vitro canine TRPM8 functional assay (icilin-induced intracellular Ca2+ increase, FLIPR/FDSS). The note with it: for % Inh @ 0.2 μM / inhibition at 0.2 µM: 0.2 μM compound, HEK293 canine TRPM8; for % Inh @ 1 μM / inhibition at 1 µM: 1 μM compound, samples diluted from 10 mM stock with 100% DMSO; for IC50: read-out: IC50. The format is cell-based. Here is the method:
The functional activity of representative compounds of the formula (I) of the present invention was quantified by measuring changes in intracellular calcium concentration using a Ca^2+-sensitive fluorescent dye. The changes in fluorescent signal were monitored by a fluorescence plate reader, either a FLIPR™ (Molecular Devices) or FDSS (Hamamatsu).
HEK293 cells stably expressing canine TRPM8 were routinely grown as monolayers in Dulbecco's minimum essential medium supplemented with 10% FBS, 2 mM L-glutamine, 100 units/mL penicillin, 100 ug/mL streptomycin and 400 μg/mL G418. Cells were maintained in 5% CO2 at 37° C. At 24 hr prior to assay, cells were seeded in black wall, clear-base poly-D-lysine coated 384-well plates (BD Biosciences, N.J., USA) at a density of 5,000 cells per well in culture medium and grown overnight in 5% CO2 at 37° C. On assay day, growth media was removed, and cells were loaded with Calcium 3 Dye (Molecular Devices) for 35 min at 37° C., under 5% CO2 and then incubated for 25 min at room temperature and atmosphere. Subsequently, cells were tested for agonist-induced increases in intracellular Ca^2+ levels using FLIPR™ or FDSS. Cells were treated with compounds of the formula (I) at varying concentrations and intracellular Ca^2+ was measured for 5 min prior to the addition of icilin to all wells to achieve a final concentration that produces approximately an 80% maximal response.
Basal FI was subtracted prior to normalizing data to percent of maximal response. Curves were generated using the average of quadruplicate wells for each data point using nonlinear regression of either sigmoidal dose response or sigmoidal dose response (variable slope). Finally, the EC50 and IC50 values were calculated with the best-fit curve determined by GraphPad Prism
Test samples were prepared by diluting a 10 mM stock solution of test compound with 100% DMSO prior to addition to assay buffer.

Where [1] appears, read: re-test, samples diluted from 10 mM stock with 100% DMSO before addition to assay buffer, Table 7.
[2] abbreviates: HEK293 cells stably expressing canine TRPM8, icilin at ~80% maximal response, Table 6.

In general, inhibition refers to the percentage by which the read-out fell short of the control. Broadly, the IC50 is the concentration that gives 50% inhibition.

Read-outs that look alike come from different tables or passages of the source.

T1 sequence (Q1A7N1 1-1104): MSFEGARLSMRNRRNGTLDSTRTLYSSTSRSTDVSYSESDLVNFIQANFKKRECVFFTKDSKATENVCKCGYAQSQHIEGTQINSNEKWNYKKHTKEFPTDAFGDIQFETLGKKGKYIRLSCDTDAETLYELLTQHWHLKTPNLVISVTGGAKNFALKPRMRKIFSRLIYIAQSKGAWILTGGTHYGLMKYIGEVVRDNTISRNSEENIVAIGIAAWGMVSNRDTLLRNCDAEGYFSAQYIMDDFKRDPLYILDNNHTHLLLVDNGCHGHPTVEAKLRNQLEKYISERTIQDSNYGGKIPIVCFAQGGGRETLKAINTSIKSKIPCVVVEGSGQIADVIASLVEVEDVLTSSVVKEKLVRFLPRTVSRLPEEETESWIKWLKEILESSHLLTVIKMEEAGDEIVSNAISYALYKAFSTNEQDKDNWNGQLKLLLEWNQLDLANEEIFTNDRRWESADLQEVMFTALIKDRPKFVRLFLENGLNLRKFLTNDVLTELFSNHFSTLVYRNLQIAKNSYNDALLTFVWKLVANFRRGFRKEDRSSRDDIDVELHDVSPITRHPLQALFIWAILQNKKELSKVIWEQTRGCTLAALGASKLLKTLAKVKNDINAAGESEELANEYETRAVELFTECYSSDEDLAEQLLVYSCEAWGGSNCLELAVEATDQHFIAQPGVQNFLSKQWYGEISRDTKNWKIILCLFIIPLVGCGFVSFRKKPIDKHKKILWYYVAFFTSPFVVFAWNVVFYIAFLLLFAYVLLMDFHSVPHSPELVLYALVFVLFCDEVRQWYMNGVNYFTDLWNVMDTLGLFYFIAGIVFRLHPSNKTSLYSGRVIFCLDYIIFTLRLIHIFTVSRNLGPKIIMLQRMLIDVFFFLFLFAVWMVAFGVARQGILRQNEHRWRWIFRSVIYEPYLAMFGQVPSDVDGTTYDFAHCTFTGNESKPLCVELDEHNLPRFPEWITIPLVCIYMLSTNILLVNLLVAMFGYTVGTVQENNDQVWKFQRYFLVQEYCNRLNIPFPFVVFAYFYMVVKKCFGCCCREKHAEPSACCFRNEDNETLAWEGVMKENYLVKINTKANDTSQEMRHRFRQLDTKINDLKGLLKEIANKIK

For `Cn1c(=NS(=O)(=O)c2ccccc2)n(Cc2ccc(F)c(C(F)(F)F)c2)c2ccccc21` [Compound 1], the “% Inh @ 0.2 μM” value (Table 6) amounted to 40%.

In the case of `Cn1c(=NS(=O)(=O)c2ccccc2)n(Cc2ccc(OC(F)(F)F)cc2)c2ccccc21` [Compound 2], the “% Inh @ 0.2 μM” value (Table 6) was 34%.

Turning to `Cn1c(=NS(=O)(=O)c2ccccc2)n(Cc2ccccc2)c2ccccc21` [Compound 3], the “% Inh @ 0.2 μM” value (Table 6) is on record as 8%. Also, the “% Inh @ 1 μM” value (re-test, Table 7) worked out at 40%.

Compound `Cn1/c(=N/S(=O)(=O)c2ccccc2)n(Cc2cccc(C(F)(F)F)c2)c2ccccc21` [Compound 4, N-[1-Methyl-3-(3-trifluoromethyl-benzyl)-1,3-dihydro-benzimidazol-2-ylidene]-benzenesulfonamide] returned an inhibition at 0.2 µM (Table 6) of 42%.

Take `Cn1c(=NS(=O)(=O)c2ccccc2)n(Cc2cccc(OC(F)(F)F)c2)c2ccccc21` [Compound 5]: for the setting “Table 6”, the “% Inh @ 0.2 μM” value was determined as 50%.

`Cn1c(=NS(=O)(=O)c2ccccc2)n(Cc2ccc(C(F)(F)F)cc2)c2ccccc21` [Compound 6]: the “% Inh @ 0.2 μM” value (Table 6) is given as 2%. Moreover, the “% Inh @ 1 μM” value (re-test, Table 7) is on record as 65%.

Regarding `Cn1c(=NS(=O)(=O)c2ccccc2)n(Cc2ccc(F)c(F)c2)c2ccccc21` [Compound 7], the “% Inh @ 0.2 μM” value (Table 6) turned out to be 24%.

Turning to `Cn1c(=NS(=O)(=O)c2ccccc2)n(Cc2ccc(F)cc2)c2ccccc21` [Compound 8], the “% Inh @ 0.2 μM” value (Table 6) was determined as 20%.

Regarding `Cn1c(=NS(=O)(=O)c2ccccc2)n(Cc2cc(C(F)(F)F)ccc2F)c2ccccc21` [Compound 9], the “% Inh @ 0.2 μM” value (Table 6) is given as 39%.

As to `Cn1c(=NS(=O)(=O)c2ccccc2)n(Cc2ccc(C(F)(F)F)c(F)c2)c2ccccc21` [Compound 10], the “% Inh @ 0.2 μM” value (Table 6) came out at 22%.

Take `Cn1c(=NS(=O)(=O)c2ccccc2)n(Cc2ccc(F)c(Cl)c2)c2ccccc21` [Compound 11]: the “% Inh @ 0.2 μM” value (Table 6) is reported as 38%.

Take `Cn1c(=NS(=O)(=O)c2ccccc2)n(Cc2ccc(SC(F)(F)F)cc2)c2ccccc21` [Compound 12]: the “% Inh @ 0.2 μM” value (Table 6) was determined as 11%.

Consider `Cn1c(=NS(=O)(=O)c2ccccc2)n(Cc2ccc(OC(F)F)cc2)c2ccccc21` [Compound 13], for which, for the setting “Table 6”, at 0.2 µM the inhibition was 9%. For the setting “re-test, Table 7”, this compound showed an inhibition at 1 µM of 55%. Also, under setting [1], the IC50 came out at 764 nM.

For `CCn1c(=NS(=O)(=O)c2ccccc2)n(Cc2ccc(OC(F)(F)F)cc2)c2ccccc21` [Compound 14], the “% Inh @ 0.2 μM” value (Table 6) turned out to be 75%. The IC50 under setting [2] was determined as 100 nM.

Regarding `CCn1c(=NS(=O)(=O)c2ccccc2)n(Cc2ccc(C(F)(F)F)cc2)c2ccccc21` [Compound 15], the “% Inh @ 0.2 μM” value (Table 6) stood at 85%. For the same compound, the IC50 under setting [2] was 69 nM.

With `Cn1c(=NS(=O)(=O)c2ccc(F)cc2)n(Cc2ccc(C(F)(F)F)cc2)c2ccccc21` [Compound 16], under “Table 6”, the “% Inh @ 0.2 μM” value is on record as 1%. For the same compound, the “% Inh @ 1 μM” value (re-test, Table 7) worked out at 57%.

As to `Cn1c(=NS(=O)(=O)c2ccc(F)cc2)n(Cc2ccc(OC(F)(F)F)cc2)c2ccccc21` [Compound 17], the inhibition at 0.2 µM (Table 6) worked out at 6%. Further, under “re-test, Table 7”, the inhibition at 1 µM amounted to 60%. For the same compound, the IC50 under setting [1] stood at 606 nM.

Under “Table 6”, `Cn1c(=NS(=O)(=O)c2ccc(C(F)(F)F)cc2)n(Cc2ccc(OC(F)(F)F)cc2)c2ccccc21` [Compound 18] returned an inhibition at 0.2 µM of 1%. Under “re-test, Table 7”, this compound registered an inhibition at 1 µM of 57%. Moreover, the IC50 under setting [1] was 635 nM.

For the compound `Cn1c(=NS(=O)(=O)c2ccc(Cl)cc2)n(Cc2ccc(C(F)(F)F)cc2)c2ccccc21` [Compound 19], where the note is “Table 6”, the “% Inh @ 0.2 μM” value worked out at 13%.

`Cn1c(=NS(=O)(=O)c2ccc(Cl)cc2)n(Cc2ccc(OC(F)(F)F)cc2)c2ccccc21` [Compound 20] returned an inhibition at 0.2 µM (Table 6) of 2%. This compound gave an inhibition at 1 µM (re-test, Table 7) of 74%. Moreover, under setting [1], the IC50 is 430 nM.

`Cn1c(=NS(=O)(=O)c2ccc(C(F)(F)F)cc2)n(Cc2ccc(C(F)(F)F)cc2)c2ccccc21` [Compound 21] yielded an inhibition at 0.2 µM (Table 6) of 8%. The compound also registered an inhibition at 1 µM (re-test, Table 7) of 59%. Further, under setting [1], the 50% inhibitory concentration (IC50) was found to be 588 nM.

In the case of `Cn1c(=NS(=O)(=O)c2ccc(Cl)cc2)n(Cc2ccc(C(F)(F)F)c(F)c2)c2ccccc21` [Compound 22], the “% Inh @ 0.2 μM” value (Table 6) came to 6%. For the same compound, the “% Inh @ 1 μM” value (re-test, Table 7) amounted to 77%. Besides, the IC50 under setting [1] amounted to 512 nM.

Regarding `Cn1c(=NS(=O)(=O)c2ccc(C(F)(F)F)cc2)n(Cc2ccc(C(F)(F)F)c(F)c2)c2ccccc21` [Compound 23], at 0.2 µM the inhibition (Table 6) was 3%. This compound also displayed an inhibition at 1 µM (re-test, Table 7) of 59%. Further, under setting [1], the IC50 is 764 nM.

As to `Cn1c(=NS(=O)(=O)c2ccc(F)cc2)n(Cc2ccc(C(F)(F)F)c(F)c2)c2ccccc21` [Compound 24], the “% Inh @ 0.2 μM” value (Table 6) is recorded as 3%. Also, the “% Inh @ 1 μM” value (re-test, Table 7) came out at 85%. Besides, under setting [1], the IC50 turned out to be 379 nM.

For the compound `CCn1c(=NS(=O)(=O)c2ccccc2)n(Cc2ccc(C(F)(F)F)c(F)c2)c2ccccc21` [Compound 25], under “Table 6”, the “% Inh @ 0.2 μM” value was 62%.

`CC(C)Cn1c(=NS(=O)(=O)c2ccccc2)n(Cc2ccc(C(F)(F)F)c(F)c2)c2ccccc21` [Compound 26]: the inhibition at 0.2 µM (Table 6) is 100%. For the same compound, the IC50 under setting [2] was 14 nM.

For the compound `CC(C)Cn1c(=NS(=O)(=O)c2ccccc2)n(Cc2ccc(C(F)(F)F)cc2)c2ccccc21` [Compound 27], the “% Inh @ 0.2 μM” value (Table 6) amounted to 71%. Also, the IC50 under setting [2] was 43 nM.

Under “Table 6”, `CC(C)Cn1c(=NS(=O)(=O)c2ccccc2)n(Cc2ccc(OC(F)(F)F)cc2)c2ccccc21` [Compound 28] had an inhibition at 0.2 µM of 70%. The IC50 under setting [2] came to 58 nM.

In the case of `Cn1c(=NS(=O)(=O)c2ccccc2)n(Cc2ccc(C(F)(F)F)cc2)c2cc(C(F)(F)F)ccc21` [Compound 29], the “% Inh @ 0.2 μM” value (Table 6) is 19%.

As for `Cn1c(=NS(=O)(=O)c2ccccc2)n(Cc2ccc(OC(F)(F)F)cc2)c2cc(C(F)(F)F)ccc21` [Compound 30], the “% Inh @ 0.2 μM” value (Table 6) stood at 17%.

In the case of `Cn1c(=NS(=O)(=O)c2ccccc2)n(Cc2ccc(C(F)(F)F)c(F)c2)c2cc(C(F)(F)F)ccc21` [Compound 31], at 0.2 µM the inhibition (Table 6) was 71%. Also, the IC50 under setting [2] is 39 nM.

For `CCn1c(=NS(=O)(=O)c2ccccc2)n(Cc2ccc(C(F)(F)F)c(F)c2)c2cc(F)ccc21` [Compound 33], the “% Inh @ 0.2 μM” value (Table 6) stood at 70%.

Compound `CC(C)n1c(=NS(=O)(=O)c2ccccc2)n(Cc2ccc(OC(F)(F)F)cc2)c2cc(C(F)(F)F)ccc21` [Compound 34] registered an inhibition at 0.2 µM (Table 6) of 95%. For the same compound, the IC50 under setting [2] turned out to be 24 nM.

Turning to `CC(C)n1c(=NS(=O)(=O)c2ccccc2)n(Cc2ccc(C(F)(F)F)c(F)c2)c2cc(C(F)(F)F)ccc21` [Compound 35], for the setting “Table 6”, the “% Inh @ 0.2 μM” value is listed as 100%. Under setting [2], the IC50 worked out at 10 nM.

On to `CCn1c(=NS(=O)(=O)c2ccccc2)n(Cc2ccc(OC(F)(F)F)cc2)c2cc(F)ccc21` [Compound 36], for which, under “Table 6”, the “% Inh @ 0.2 μM” value was 36%.

Take `Cn1c(=NS(=O)(=O)c2ccccc2)n(Cc2ccc(C(F)(F)F)cc2)c2cc(F)ccc21` [Compound 38]: where the note is “Table 6”, the “% Inh @ 0.2 μM” value was 1%. Besides, the “% Inh @ 1 μM” value (re-test, Table 7) came out at 24%.

`CCn1/c(=N/S(=O)(=O)c2ccccc2)n(Cc2ccc(C(F)(F)F)cc2)c2cc(F)ccc21` [Compound 39, N-[1-Ethyl-5-fluoro-3-(4-trifluoromethyl-benzyl)-1,3-dihydro-benzimidazol-2-ylidene]-benzenesulfonamide]: for the setting “Table 6”, the inhibition at 0.2 µM was found to be 26%.

In turn, `O=S(=O)(N=c1n(Cc2ccc(C(F)(F)F)cc2)c2ccccc2n1CC(F)(F)F)c1ccccc1` [Compound 40] registered an inhibition at 0.2 µM (Table 6) of 9%. The same compound gave an inhibition at 1 µM (re-test, Table 7) of 57%. For the same compound, the IC50 under setting [1] turned out to be 426 nM.

Take `Cn1c(=NS(=O)(=O)c2ccccc2)n(Cc2ccc(C(F)(F)F)c(F)c2)c2cc(F)ccc21` [Compound 41]: under “Table 6”, the “% Inh @ 0.2 μM” value was 6%. Under “re-test, Table 7”, the “% Inh @ 1 μM” value worked out at 79%.

`CC(C)n1c(=NS(=O)(=O)c2ccccc2)n(Cc2ccc(C(F)(F)F)c(F)c2)c2cc(Cl)ccc21` [Compound 42] registered an inhibition at 0.2 µM (Table 6) of 95%. The IC50 under setting [2] worked out at 26 nM.

Under “Table 6”, `O=S(=O)(/N=c1\n(Cc2ccc(C(F)(F)F)c(F)c2)c2ccccc2n1CC(F)(F)F)c1ccccc1` [Compound 43, N-[1-(3-Fluoro-4-trifluoromethyl-benzyl)-3-(2,2,2-trifluoro-ethyl)-1,3-dihydro-benzimidazol-2-ylidene]-benzenesulfonamide] had an inhibition at 0.2 µM of 89%. Further, the IC50 under setting [2] was 21 nM.

As to `O=S(=O)(N=c1n(Cc2ccc(OC(F)(F)F)cc2)c2ccccc2n1CC(F)(F)F)c1ccccc1` [Compound 44], the “% Inh @ 0.2 μM” value (Table 6) came out at 37%.

With `CC(C)n1c(=NS(=O)(=O)c2ccccc2)n(Cc2ccc(OC(F)(F)F)cc2)c2cc(Cl)ccc21` [Compound 45], the “% Inh @ 0.2 μM” value (Table 6) was determined as 66%.

Consider `Cn1c(=NS(=O)(=O)c2ccccc2)n(Cc2ccc(OC(F)(F)F)cc2)c2cc(F)ccc21` [Compound 46], for which, where the note is “Table 6”, the “% Inh @ 0.2 μM” value is listed as 1%. In addition, the “% Inh @ 1 μM” value (re-test, Table 7) amounted to 58%.

Values taken from patent publication US9636345B2, “Benzimidazole derivatives useful TRPM8 channel modulators” (Janssen Pharmaceutica NV, priority 2009, dated 2017).
